Measured values as given in paper PMC10518257 (Nature Cancer, 2023).
“And” between values parts separate entries of the source, which are not always exact repeats. Identical values can stand only once. Like-named read-outs stand apart in the source and are kept apart here.

Tests used:
TT cells (RET C634W) = experiment: Dose-response western blotting, EC50 for inhibition of protein phosphorylation; format: cell-based; conditions: Homo sapiens
[1] = system: Ba/F3 cells expressing KIF5B–RET^V804M; experiment: Growth inhibition assay in Ba/F3 cells (CellTiter-Glo, 72 h); format: cell-based; conditions: replicate sets
[2] = system: ECLC5 luciferase cells implanted intracranially; experiment: Intracranial efficacy study; format: in vivo, NSG mice; conditions: for Luminescence Data: Fig. 8e ECLC5 intracranial, 50 mg/kg BID, individual animals
[3] = system: Ba/F3 cells expressing KIF5B–RET^G810C; experiment: Growth inhibition assay in Ba/F3 cells (CellTiter-Glo, 72 h); format: cell-based; conditions: Ba/3-KIF5B-RET-G810C; replicate Sets 1-3
[4] = system: LUAD-0002AS1 cells (KIF5B::RET); experiment: Dose-response western blotting, EC50 for inhibition of protein phosphorylation; format: cell-based; conditions: Homo sapiens, LUAD-0002AS1, 2 h, densitometry
HBECp53-EV cells = experiment: Growth inhibition (alamarBlue, 96 h); format: cell-based, human; conditions: for raw viability signal (Source Data Fig. 3b-c): HBEC-EV, replicate sets
LUAD-0087AS2 PDX = experiment: PDX efficacy study; conditions: for Change in tumor volume (% from base line): Fig. 6a LUAD-0087AS2; for Change in tumor volume (% from base line) / Tumor volume: individual animals; for Area Under Curve Mean: Fig. 6a LUAD-0087AS2 tumor growth; for Tumor volume: LUAD-0087AS2
[5] = Animal weight of tumor-bearing mice

COCc1ccc(NC(=O)c2c(C#CCN3CCOCC3)n(C3(C)CC3)c3ncnc(N)c23)cc1 [Vepafestinib, 4-amino-N-[4-(methoxymethyl)phenyl]-7-(1-methylcyclopropyl)-6-[3-(morpholin-4-yl)prop-1-yn-1-yl]-7H-pyrrolo[2,3-d]pyrimidine-5-carboxamide]
EC50 (TT cells (RET C634W); read-out: EC50 for Inhibition of Protein Phosphorylation (95% CI), AKT S473, 2 h, densitometry): 2.4 nM
EC50 (TT cells (RET C634W); read-out: EC50 for Inhibition of Protein Phosphorylation (95% CI), ERK1/2 T202/Y204, 2 h, densitometry): 0.3 nM
EC50 (TT cells (RET C634W); read-out: EC50 for Inhibition of Protein Phosphorylation (95% CI), MEK1/2 S217/S221, 2 h, densitometry): 2.1 nM
EC50 (TT cells (RET C634W); read-out: EC50 for Inhibition of Protein Phosphorylation (95% CI), P70 RSK T421/S424, 2 h, densitometry): 1.1 nM
EC50 (TT cells (RET C634W); read-out: EC50 for Inhibition of Protein Phosphorylation (95% CI), RET Y905, 2 h, densitometry): 0.3 nM
EC50 (TT cells (RET C634W); read-out: EC50 for Inhibition of Protein Phosphorylation (95% CI), S6RP S235/S236, 2 h, densitometry): 0.7 nM
GI50 ([1]; Ba/3-KIF5B-RET-V804M): 38.7 nM
GI50 ([1]; Mus musculus, BaF3, Ba/3-KIF5B-RET-V804M): 44.8 nM
survival time ([2]; 50 mg per kg BID, all animals alive): > 139 d of treatment
Luminescence Data ([2]; treatment day 0 (=1)): 1
Luminescence Data ([2]; treatment day 5, day 0 = 1, 50 mg/kg): 0.4116 and 0.5677 and 0.6168 and 0.1116 and 0.9191 and 0.3141
Luminescence Data ([2]; treatment day 12, day 0 = 1, 50 mg/kg): 0.3041 and 0.6223 and 0.3951 and 0.05187 and 0.856 and 0.4174
Luminescence Data ([2]; treatment day 18, day 0 = 1, 50 mg/kg): 0.3959 and 0.7406 and 0.6024 and 0.03931 and 0.9545 and 0.2802
Luminescence Data ([2]; treatment day 26, day 0 = 1, 50 mg/kg): 0.3977 and 0.5749 and 0.4469 and 0.01537 and 0.7719 and 0.2517
Luminescence Data ([2]; treatment day 33, day 0 = 1, 50 mg/kg): 0.4164 and 0.7522 and 0.6219 and 0.01856 and 1.136 and 0.285
Luminescence Data ([2]; treatment day 40, day 0 = 1, 50 mg/kg): 0.3201 and 0.5375 and 0.4135 and 0.01963 and 0.792 and 0.1799
Luminescence Data ([2]; treatment day 46, day 0 = 1, 50 mg/kg): 0.3305 and 0.5368 and 0.3264 and 0.008566 and 0.9694 and 0.2044
Luminescence Data ([2]; treatment day 55, day 0 = 1, 50 mg/kg): 0.516 and 0.834 and 0.6149 and 0.01696 and 1.167 and 0.3646
Luminescence Data ([2]; treatment day 61, day 0 = 1, 50 mg/kg): 0.3872 and 0.6582 and 0.5284 and 0.01449 and 1.158 and 0.246
Luminescence Data ([2]; treatment day 68, day 0 = 1, 50 mg/kg): 0.3804 and 0.71 and 0.4932 and 0.01469 and 1.521 and 0.2588
Luminescence Data ([2]; treatment day 75, day 0 = 1, 50 mg/kg): 0.2695 and 0.603 and 0.5415 and 0.02346 and 1.537 and 0.2239
Luminescence Data ([2]; treatment day 82, day 0 = 1, 50 mg/kg): 0.477 and 0.7647 and 0.421 and 0.02545 and 2.278 and 0.2761
Luminescence Data ([2]; treatment day 89, day 0 = 1, 50 mg/kg): 0.4292 and 0.858 and 0.6342 and 0.04079 and 3.665 and 0.3289
Luminescence Data ([2]; treatment day 96, day 0 = 1, 50 mg/kg): 0.3189 and 0.6963 and 0.5402 and 0.01338 and 5.016 and 0.1926
Luminescence Data ([2]; treatment day 103, day 0 = 1, 50 mg/kg): 0.4201 and 0.6542 and 0.7489 and 0.02359 and 6.915 and 0.2847
Luminescence Data ([2]; treatment day 110, day 0 = 1, 50 mg/kg): 0.2991 and 0.6305 and 0.5409 and 0.02851
GI50 [3]: 14.5 nM
EC50 ([4]; read-out: EC50 for Inhibition of Protein Phosphorylation (95% CI), AKT S473): 1.4 nM
EC50 ([4]; read-out: EC50 for Inhibition of Protein Phosphorylation (95% CI), ERK1/2 T202/Y204): 0.9 nM
EC50 ([4]; read-out: EC50 for Inhibition of Protein Phosphorylation (95% CI), MEK1/2 S217/S221): 1.5 nM
EC50 ([4]; read-out: EC50 for Inhibition of Protein Phosphorylation (95% CI), P70 RSK T421/S424): 4.9 nM
EC50 ([4]; read-out: EC50 for Inhibition of Protein Phosphorylation (95% CI), RET Y905): 1.3 nM
EC50 ([4]; read-out: EC50 for Inhibition of Protein Phosphorylation (95% CI), S6RP S235/S236): 15 nM
raw viability signal (Source Data Fig. 3b-c) (HBECp53-EV cells; 0.01 nM): 27037 and 29740.2
raw viability signal (Source Data Fig. 3b-c) (HBECp53-EV cells; 0.1 nM): 19425.3 (2×) and 27020.1 and 29597.7
raw viability signal (Source Data Fig. 3b-c) (HBECp53-EV cells; 1 nM): 18975.7 (2×) and 23808.3 and 29292.2
raw viability signal (Source Data Fig. 3b-c) (HBECp53-EV cells; 10 nM): 19412.6 (2×) and 25517.4 and 26617.3
raw viability signal (Source Data Fig. 3b-c) (HBECp53-EV cells; 100 nM): 19354.5 (2×) and 27120.8 and 27640.4
raw viability signal (Source Data Fig. 3b-c) (HBECp53-EV cells; 1000 nM): 20047.9 (2×) and 18738.8 and 27632.3
raw viability signal (Source Data Fig. 3b-c) (HBECp53-EV cells; 10000 nM): 7853.82 (2×) and 1053.31 and 23430.8
IC50 (HBECp53-EV cells; Homo sapiens, 96 h, read-out: IC50 for Inhibition of Growth (95% CI)): 7900 nM
Change in tumor volume (% from base line) (LUAD-0087AS2 PDX; 50 mg/kg BID): 87.879% and 58.129% and 44.45% and -5.144% and -25.229%
Change in tumor volume (% from base line) (LUAD-0087AS2 PDX; 100 mg/kg QD): 17.228% and 8.714% and 8.637% and 6.644% and -4.481%
Area Under Curve Mean (LUAD-0087AS2 PDX; 50 mg/kg BID): 607.7
Area Under Curve Mean (LUAD-0087AS2 PDX; 100 mg/kg QD): -475
Tumor volume (LUAD-0087AS2 PDX; 50 mg/kg BID, treatment day 14): 176.99 and 151.71 and 143.39 and 141.55 and 122.52
Tumor volume (LUAD-0087AS2 PDX; 50 mg/kg BID, treatment day 17): 184.47 and 160.85 and 154.42 and 148.22 and 128.59
Tumor volume (LUAD-0087AS2 PDX; 50 mg/kg BID, treatment day 21): 153.78 and 172.55 and 161.49 and 152.64 and 130.54
Tumor volume (LUAD-0087AS2 PDX; 50 mg/kg BID, treatment day 24): 80.7 and 118.01 and 87.03 and 107.44 and 78.99
Tumor volume (LUAD-0087AS2 PDX; 50 mg/kg BID, treatment day 29): 140.89 (2×) and 167.28 and 145.47 and 91.61
Tumor volume (LUAD-0087AS2 PDX; 50 mg/kg BID, treatment day 32): 98.2 and 131.95 and 113.98 and 102.07 and 83.83
Tumor volume (LUAD-0087AS2 PDX; 50 mg/kg BID, treatment day 35): 98.2 and 165.14 and 137.6 and 146.01 and 86.78
Tumor volume (LUAD-0087AS2 PDX; 50 mg/kg BID, treatment day 38): 108.88 and 165.14 and 151.71 and 155.09 and 86.78
Tumor volume (LUAD-0087AS2 PDX; 50 mg/kg BID, treatment day 42): 118.01 and 213.8 and 176.98 and 176.74 and 91.61
Tumor volume (LUAD-0087AS2 PDX; 50 mg/kg BID, treatment day 45): 118.01 and 222.58 and 176.98 and 181.58 and 91.61
Tumor volume (LUAD-0087AS2 PDX; 100 mg/kg QD, treatment day 14): 102.07 and 91.61 and 107.17 and 110.58 and 103.77
Tumor volume (LUAD-0087AS2 PDX; 100 mg/kg QD, treatment day 17): 102.07 and 81.71 and 90.28 and 103.77 (2×)
Tumor volume (LUAD-0087AS2 PDX; 100 mg/kg QD, treatment day 21): 107.17 (2×) and 113.1 and 118.75 and 114.83
Tumor volume (LUAD-0087AS2 PDX; 100 mg/kg QD, treatment day 24): 93.59 and 83.07 and 77.95 and 87.03 and 98.2
Tumor volume (LUAD-0087AS2 PDX; 100 mg/kg QD, treatment day 29): 100.37 and 99.78 and 80.89 and 91.87 and 98.2
Tumor volume (LUAD-0087AS2 PDX; 100 mg/kg QD, treatment day 32): 103.92 and 108.88 and 90.28 and 95.24 and 107.17
Tumor volume (LUAD-0087AS2 PDX; 100 mg/kg QD, treatment day 35): 109.36 and 120.29 and 95.03 and 107.44 and 110.58
Tumor volume (LUAD-0087AS2 PDX; 100 mg/kg QD, treatment day 38): 109.36 and 120.29 and 114.83 and 118.75 and 122.12
Tumor volume (LUAD-0087AS2 PDX; 100 mg/kg QD, treatment day 42): 109.36 and 126.29 and 116.65 and 126.64 and 138.88
Tumor volume (LUAD-0087AS2 PDX; 100 mg/kg QD, treatment day 45): 109.36 and 126.29 and 120.64 and 126.64 and 138.88
Animal Weight, Mean ([5]; Ba/F3-KIF5B::RET (Fig 8e), 25 mg/kg BID, day 0): 25.1 g
Animal Weight, Mean ([5]; Ba/F3-KIF5B::RET (Fig 8e), 25 mg/kg BID, day 4): 27.6 g
Animal Weight, Mean ([5]; Ba/F3-KIF5B::RET (Fig 8e), 25 mg/kg BID, day 8): 27.2 g
Animal Weight, Mean ([5]; Ba/F3-KIF5B::RET (Fig 8e), 25 mg/kg BID, day 11): 27.1 g
Animal Weight, Mean ([5]; Ba/F3-KIF5B::RET (Fig 8e), 25 mg/kg BID, day 15): 27.6 g
Animal Weight, Mean ([5]; Ba/F3-KIF5B::RET (Fig 8e), 50 mg/kg BID, day 0): 25.4 g
Animal Weight, Mean ([5]; Ba/F3-KIF5B::RET (Fig 8e), 50 mg/kg BID, day 4): 27.8 g
Animal Weight, Mean ([5]; Ba/F3-KIF5B::RET (Fig 8e), 50 mg/kg BID, day 8): 26.3 g
Animal Weight, Mean ([5]; Ba/F3-KIF5B::RET (Fig 8e), 50 mg/kg BID, day 11): 25.3 g
Animal Weight, Mean ([5]; Ba/F3-KIF5B::RET (Fig 8e), 50 mg/kg BID, day 15): 25.9 g
Animal Weight, Mean ([5]; Ba/F3-KIF5B::RET G810R (Fig 8f), Vepafestinib 10 mg/kg BID, day 1): 25.86 g
Animal Weight, Mean ([5]; Ba/F3-KIF5B::RET G810R (Fig 8f), Vepafestinib 10 mg/kg BID, day 4): 25.30 g
Animal Weight, Mean ([5]; Ba/F3-KIF5B::RET G810R (Fig 8f), Vepafestinib 10 mg/kg BID, day 8): 24.90 g
